{"source": "patent US20230301972A1", "about": "“ANTI-FIBROTIC COMPOSITION AND RELATED METHODS” (Fred Hutchinson Cancer Center, priority 2020, published 2023)", "key": {"LX2 cells": {"system": "LX2 cells", "test": "qPCR of TGF-β-induced gene expression in LX2 cells", "format": "cell-based, human", "experimental": "LX2 cells were obtained from Sigma Aldrich (Cat #SCC064). LX2 cells were grown at 37° C. under 5% CO2, 95% ambient atmosphere and maintained in Dulbecco's […] (DMEM) supplemented with 10% FBS (Sigma) and 1% Penn Strep.\n(§1) FIGS. 10B and 10C: LX2 cells were incubated with TGF-β alone at 6.5 ng/ml or TGF-β with indicated drugs for 48 hours. Total cellular RNA was isolated using a RNeasy Mini Kit (QIAGEN). 1 μg of total RNA was reverse transcribed into first-strand cDNA using an RT2 First Strand Kit (QIAGEN). The resultant cDNA was subjected to qPCR using indicated human primers to measure the changes in mRNA expression of indicated human genes."}, "SMAD2 phosphorylation": {"system": "SMAD2 phosphorylation", "test": "Immunoblot of TGF-β-mediated SMAD2 phosphorylation in LX2 cells", "format": "cell-based, human"}, "FGFR": {"system": "FGFR", "test": "Kinome-profiling, FGFR", "format": "biochemical", "conditions": "at 500 nM"}, "[1]": {"conditions": "cited from earlier work"}, "CCl4-induced fibrosis": {"system": "CCl4-induced fibrosis", "test": "Carbon tetrachloride (CCl4)-induced liver fibrosis mouse model", "format": "in vivo", "conditions": "vs CCl4-only treated mouse livers tissues; RPPA, IHC"}, "IPF lung fibroblasts": {"system": "IPF lung fibroblasts", "test": "Collagen contraction assay in lung fibroblasts", "format": "cell-based, human", "experimental": "FIG. 5B: LL-47 cells were cultured in a collagen gel solution in 24-well plate. […] After 24 hours, cell contraction was initiated by releasing the collagen gels from the sides of the culture dishes. The collagen gel size change (contraction index) was measured at various times and quantified with Image Lab.\nFIG. 5C: same method as outlined in FIG. 5B. IPF-LL29 and IPF-LL97A cells were cultured in a collagen gel solution. 24 hours later, TGF-β alone or together with indicated drugs was added for 24 hours before cell contraction was initiated. Images shown here were taken 120 hours after the initiation of cell contraction."}, "mouse lung fibroblasts": {"system": "mouse lung fibroblasts", "test": "qPCR of TGF-β-induced gene expression in mouse primary lung fibroblasts", "format": "cell-based", "conditions": "TGF-β 5 ng/ml, 24 hours", "experimental": "(§2) IPF-LL29, IPF-LL97A, and human lung fibroblast LL47 cell lines were purchased from ATCC. Mouse lung fibroblasts were isolated from the lungs of male C57BL/6J mice. Cells were grown at 37° C. under 5% CO2, 95% ambient atmosphere and maintained in Dulbecco's […] (DMEM) supplemented with 10% FBS (Sigma) and 1% Penn Strep.\n(§3) FIGS. 3A and 3B. Human lung fibroblast LL47 and mouse primary lung fibroblasts isolated from mouse lungs were incubated with TGF-β alone at 5 ng/ml or TGF-β with indicated drugs for 24 hours. Same method as outlined in FIGS. 2A and 2B was used to measure the mRNA expression of indicated human or mouse genes."}, "VEGFR": {"system": "VEGFR", "test": "Kinome-profiling, VEGFR", "format": "biochemical", "conditions": "at 500 nM"}, "[2]": {"system": "IPF-LL29 and IPF-LL97A cells", "test": "qPCR of TGF-β-induced gene expression in IPF-LL29 and IPF-LL97A cells", "format": "cell-based, human", "conditions": "human lung fibroblast cell lines derived from IPF patients", "experimental": "as §2\nas §1, with “2A” for “10B”, “2B. IPF-29 (FIG. 2A) or IPF-97A (FIG. 2B)” for “10C: LX2”, “5” for “6.5”, “hours and 5 days.” for “hours.”"}, "TGFBR1/2": {"system": "TGFBR1/2", "test": "Kinome-profiling, TGFBR1/2", "format": "biochemical", "conditions": "at 500 nM"}, "[3]": {"system": "Human lung fibroblasts (LL47)", "test": "qPCR of TGF-β-induced gene expression in human lung fibroblasts LL47", "format": "cell-based", "conditions": "OSI-632 1 mM as printed; LL47, 24 hours", "experimental": "as §2, §3"}, "LL47 cells": {"system": "LL47 cells", "test": "Real-time wound healing assay (Incucyte) in lung fibroblasts", "format": "cell-based", "conditions": "dose-dependent; human lung fibroblasts", "experimental": "FIG. 5A: LL47 cells were plated on 96-well plates (Essen Image Lock, Essen Instruments). […] Wound closure was monitored with Incucyte Live-Cell Imaging System and software (Essen Instruments) every 2-4 hours for 72 hours. The mean relative wound density of at least three biological replicates was calculated. The wound density correlates with the cell motility."}}, "data": [{"compound": "NC(=O)c1c(OCc2c(F)cc(Br)cc2F)nsc1NC(=O)NCCCCN1CCCC1", "note": "[OSI-632, 3-(4-bromo-2,6-difluoro-benzyloxy)-5-[3-(4-pyrrolidin-1-yl-butyl)-ureido]-isothiazole-4-carboxylic acid amide]", "values": [{"measurement": "expression of integrins (ITGAV and ITGB6) and HSC proliferation stimuli TGFB2, PDGFA, PDGFB, CTGF, VEGFA, and CCL5", "setting": "LX2 cells", "value": "significant decrease"}, {"measurement": "inhibition of expression of COL1A1 (FIG. 10C)", "setting": "LX2 cells", "value": 2, "unit": "fold"}, {"measurement": "inhibition of expression of COL1A2 (FIG. 10C)", "setting": "LX2 cells", "value": 3, "unit": "fold"}, {"measurement": "inhibition of expression of COL5A1 (FIG. 10C)", "setting": "LX2 cells", "value": 5, "unit": "fold"}, {"measurement": "decrease in TGF-β-induced expression of COL1A1 (FIG. 10B)", "setting": "LX2 cells; 48 hours", "value": 2, "unit": "fold"}, {"measurement": "decrease in TGF-β-induced expression of αSMA (FIG. 10B)", "setting": "LX2 cells; 48 hours", "value": 2, "unit": "fold"}, {"measurement": "activation of TGF-β-mediated SMAD2 phosphorylation (immunoblot)", "setting": "SMAD2 phosphorylation", "value": "blocks activation"}, {"measurement": "inhibition of FGFR", "setting": "FGFR", "value": 90, "unit": "%"}, {"measurement": "bleeding and thrombosis toxicity", "setting": "[1]; as sometimes observed with agents targeting VEGF/VEGFR", "value": "neither had toxicity issues of bleeding and thrombosis"}, {"measurement": "adverse events in the liver", "setting": "[1]; in vivo", "value": "nor does it cause any adverse events in the liver"}, {"measurement": "maximal tolerable dose", "setting": "[1]; phases I and II trials for various cancers", "value": 200, "unit": "mg/day"}, {"measurement": "safety and tolerability", "setting": "[1]; phases I and II trials, toxicities primarily low grade and readily managed", "value": "safe and well-tolerated"}, {"measurement": "CCl4-induced phosphorylation of Smad2, Pdgfrb, Fgfr, Src, Nfκβ, and STAT3", "setting": "CCl4-induced fibrosis", "value": "significantly decreased"}, {"measurement": "contractility in collagen contraction assay", "setting": "IPF lung fibroblasts; 0.5 or 1 mM OSI-632 as printed, TGF-β-stimulated", "value": "significantly decreased contractility"}, {"measurement": "inhibition of motility and contraction compared with nintedanib or pirfenidone", "setting": "IPF lung fibroblasts; collagen contraction assay, IPF-LL29 and IPF-LL97A cells, 120 hours", "value": "significantly outperforms inhibition by nintedanib or pirfenidone"}, {"measurement": "expression of indicated fibroblast activation and proliferation factors", "setting": "mouse lung fibroblasts", "value": "inhibited expression"}, {"measurement": "inhibition of VEGFR", "setting": "VEGFR", "value": "~75", "unit": "%"}, {"measurement": "TGF-β-induced expression of myofibroblast activation markers αSMA, COL1A1, COL3A1 and FN1", "setting": "[2]; 48 hours and 5 days", "value": "decreased"}, {"measurement": "expression of myofibroblast proliferation stimuli TGFB1, CTGF, IL-11, FGF2 and VEGFA", "setting": "[2]; TGF-β 5 ng/ml", "value": "significant decrease"}, {"measurement": "inhibition of TGFBR1/2", "setting": "TGFBR1/2", "value": 91, "unit": "%"}, {"measurement": "TGFb-induced expression of COL1A1, ACTA2, and FN1 and of indicated proliferation stimuli", "setting": "[3]", "value": "inhibited"}, {"measurement": "motility (cell migration), real-time wound healing assay", "setting": "LL47 cells", "value": "potently decreased motility"}]}]}
